Laboratory results as given in patent US20240034730A1, “PYRAZOLO DERIVATIVES AS HUMAN DIHYDROOROTATE DEHYDROGENASE (HDHODH) INHIBITORS FOR USE AS ANTIVIRALS” (DRUG DISCOVERY AND CLINIC S.R.L., priority 2020, published 2024).
Values after ≈ are worked out from the molar mass of the structure shown. Like-named read-outs stand apart in the source and are kept apart here. Each block holds one molecule with its values, some of them ahead of it.

Key:
[1] = target: recombinant hDHODH (Homo sapiens (Human), UniProt Q02127); assay: hDHODH inhibition assay (DCIP reduction); assay type: biochemical
[2] = Solubility assay at pH 7.4 in PBS; assay type: physicochemical; details: for solubility at 24 h: 25 °C, pH 7.4, aqueous buffer, thermodynamic from solid; for Solubility in PBS: pH 7.4
[3] = log D (pH 7.4), shake-flask n-octanol/PBS; details: n-octanol/PBS pH 7.4, shake flask
[4] = pH 7.4
[5] = test system: hCoV-OC43; assay: Focus forming reduction assay (FFRA), hCoV-OC43 in HCT-8 cells, single concentration; assay type: cell-based; details: HCT8 cells, 72 h p.i., vs DMSO control; for inhibition at 0.1 µM: Betacoronavirus 1, OC43, HCT-8, 72 h, read-out: % Decrease of hCoV-OC43 replication in presence of inhibitor 0.1 μM
[6] = recombinant GST-hDHODH, means ± SE of three independent experiments, read-out: hDHODH IC50 ± SE
[7] = recombinant GST-hDHODH, means ± SE of three independent experiments

Sequence of recombinant hDHODH (Q02127 whole entry): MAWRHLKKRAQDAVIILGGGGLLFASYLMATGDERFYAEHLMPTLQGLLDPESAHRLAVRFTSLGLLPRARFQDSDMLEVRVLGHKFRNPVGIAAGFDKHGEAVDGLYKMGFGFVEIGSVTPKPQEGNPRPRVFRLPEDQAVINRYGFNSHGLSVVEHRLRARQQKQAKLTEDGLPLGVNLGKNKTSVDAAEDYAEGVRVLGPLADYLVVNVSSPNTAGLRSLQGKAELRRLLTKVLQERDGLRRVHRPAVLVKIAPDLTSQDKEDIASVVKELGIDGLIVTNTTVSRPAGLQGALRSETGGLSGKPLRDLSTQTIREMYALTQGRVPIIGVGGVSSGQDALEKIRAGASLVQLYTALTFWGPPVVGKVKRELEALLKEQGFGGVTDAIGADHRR

Compound: CCC(C)Oc1cc(Oc2ccccc2)c(C)cc1NC(=O)c1c(O)nn2ccccc12 (stereo not drawn) [Compound 33, N-(2-(Sec-butoxy)-5-methyl-4-phenoxyphenyl)-2-hydroxypyrazolo[1,5-a]pyridine-3-carboxamide]
IC50 [1, 6]: 3940 ± 797 nM

solubility at 24 h [2]: 1.2 ± 0.28 µM (≈ 0.482 µg/mL)
Log D7.4 ± SD [3]: 3.18 ± 0.09
Compound: Cc1cc(NC(=O)c2c(O)nn3ccccc23)c(C(C)C)cc1Oc1ccccc1 [Compound 29, 2-Hydroxy-N-(2-isopropyl-5-methyl-4-phenoxyphenyl)pyrazolo[1,5-a]pyridine-3-carboxamide]

Compound: O=C(Nc1c(F)c(F)c(-c2ccc(F)cc2)c(F)c1F)c1c(O)nn2ccccc12 [Compound 10, 2-Hydroxy-N-(2,3,4′,5,6-pentafluoro-[1,1′-biphenyl]-4-yl)pyrazolo[1,5-a]pyridine-3-carboxamide]
Log D7.4 ± SD [4]: Insoluble
IC50 [1, 6]: 17.7 nM
Solubility in PBS [2]: <LOD

solubility at 24 h [2]: 1.23 ± 0.09 µM (≈ 0.577 µg/mL)
Compound: Cc1cc(NC(=O)c2c(O)nn3ccccc23)c(C(C)C)cc1Oc1ccc(C(F)(F)F)cc1 [Compound 37, 2-Hydroxy-N-(2-isopropyl-5-methyl-4-(4-(trifluoromethyl)phenoxy)phenyl)pyrazolo[1,5-a]pyridine-3-carboxamide]
inhibition at 0.1 µM [5]: 36.1%

Compound: O=C(Nc1c(F)c(F)c(-c2cccc(F)c2)c(F)c1F)c1c(O)nn2ccccc12 [Compound 11, 2-Hydroxy-N-(2,3,3′,5,6-pentafluoro-[1,1′-biphenyl]-4-yl)pyrazolo[1,5-a]pyridine-3-carboxamide]
Log D7.4 ± SD [4]: 2.09 ± 0.04
IC50 [1, 6]: 2.03 nM
Solubility in PBS [2]: <LOD

Compound: CCCC(C)Oc1cc(Oc2ccccc2)c(C)cc1NC(=O)c1c(O)nn2ccccc12 (stereo not drawn) [Compound 34, 2-Hydroxy-N-(5-methyl-2-(pentan-2-yloxy)-4-phenoxyphenyl) pyrazolo[1,5-a]pyridine-3-carboxamide]
IC50 [1, 6]: 2210 ± 346 nM

Compound: O=C(Nc1c(F)c(F)c(-c2ccnc(C(F)(F)F)c2)c(F)c1F)c1c(O)nn2ccccc12 [Compound 9, 2-Hydroxy-N-(2,3,5,6-tetrafluoro-4-(2-(trifluoromethyl)pyridin-4-yl)phenyl)pyrazolo[1,5-a]pyridine-3-carboxamide]
inhibition at 0.1 µM [5]: > 50%
Log D7.4 ± SD [4]: 1.84 ± 0.06
IC50 [1, 6]: 150 ± 15 nM

Compound: Oc1nn2ccccc2c1-c1nnc(-c2c(F)c(F)c(-c3ccccc3)c(F)c2F)o1 [Compound 39, 3-(5-(2,3,5,6-Tetrafluoro-[1,1′-biphenyl]-4-yl)-1,3,4-oxadiazol-2-yl) pyrazolo [1,5-a]pyridine-2-ol]
hDHODH IC50 ± SE [1, 7]: Inactive at 1 microM

Compound: O=C(Nc1c(F)c(F)c(-c2ccccc2)c(F)c1F)c1c(O)nn2c(Cl)cccc12 [Compound 4, 7-Chloro-2-hydroxy-N-(2,3,5,6-tetrafluoro-[1,1′-biphenyl]-4-yl)pyrazolo[1,5-a]pyridine-3-carboxamide]
Log D7.4 ± SD [4]: 2.81 ± 0.13
IC50 [1, 6]: 3.4 nM
Solubility in PBS [2]: <LOD

Compound: Cc1cc(Sc2ccncc2)c(C)cc1NC(=O)c1c(O)nn2ccccc12 [Compound 26, 2-Hydroxy-N-(2,5-dimethyl-4-(pyridin-4-ylthio)phenyl) pyrazolo[1,5-a]pyridine-3-carboxamide]
IC50 [1, 6]: 2210 ± 366 nM
Log D7.4 ± SD [3]: 1.76 ± 0.07

Compound: O=C(Nc1c(F)c(F)c(-c2cccnc2)c(F)c1F)c1c(O)nn2ccccc12 [Compound 8, 2-Hydroxy-N-(2,3,5,6-tetrafluoro-4-(pyridin-3-yl)phenyl)pyrazolo[1,5-a]pyridine-3-carboxamide]
Log D7.4 ± SD [4]: 0.98 ± 0.03
IC50 [1, 6]: 6.23 nM

solubility at 24 h [2]: 111.1 ± 0.35 µM (≈ 44.7 µg/mL)
Log D7.4 ± SD [3]: 2.51 ± 0.07
Compound: Cc1cc(NC(=O)c2c(O)nn3ccccc23)c(C(C)C)cc1Oc1ccncc1 [Compound 36, 2-Hydroxy-N-(2-isopropyl-5-methyl-4-(pyridin-4-yloxy)phenyl)pyrazolo[1,5-a]pyridine-3-carboxamide]

IC50 [1, 6]: 480 ± 31 nM
Compound: Cc1cc(NC(=O)c2c(O)nn3ccccc23)ccc1Oc1ccccc1 [Compound 27]

Compound: CCC(CC)Oc1cc(Oc2ccccc2)c(C)cc1NC(=O)c1c(O)nn2ccccc12 [Compound 35, 2-Hydroxy-N-(5-methyl-2-(pentan-3-yloxy)-4-phenoxyphenyl)pyrazolo[1,5-a]pyridine-3-carboxamide]
IC50 [1]: 6980 ± 1010 nM

Compound: Oc1nn2ccccc2c1/N=N/c1c(F)c(F)c(-c2ccccc2)c(F)c1F [Compound 25]
% Decrease of hCoV-OC43 replication in presence of inhibitor 0.1 μM [5]: 18.70%
IC50 [1, 6]: 13 nM

Compound: Cc1cc(NC(=O)c2c(O)nn3ccccc23)c(OC2CCC2)cc1Oc1ccccc1 [Compound 32, N-(2-cyclobutoxy-5-methyl-4-phenoxyphenyl)-2-hydroxypyrazolo[1,5-a]pyridine-3-carboxamide]
IC50 [1, 6]: > 10000 nM

Compound: O=C(Nc1ccc2[nH]ccc2c1)c1c(O)nn2ccccc12 [Compound 19, 2-Hydroxy-N-(1H-indol-5-yl)pyrazolo[1,5-a]pyridine-3-carboxamide]
IC50 [1, 6]: > 10000 nM
Log D7.4 ± SD [3]: 0.45 ± 0.02

Compound: Cc1cc(NC(=O)c2c(O)nn3ccccc23)c(OC(C)C)cc1Oc1ccccc1 [Compound 31, 2-Hydroxy-N-(2-isopropoxy-5-methyl-4-phenoxyphenyl)pyrazolo[1,5-a]pyridine-3-carboxamide]
IC50 [1, 6]: 5200 ± 924 nM

solubility at 24 h [2]: 0.98 ± 0.23 µM (≈ 0.393 µg/mL)
Log D7.4 ± SD [3]: 2.91 ± 0.07
Compound: Cc1cc(Oc2ccccc2)c(C(C)C)cc1NC(=O)c1c(O)nn2ccccc12 [Compound 30, 2-Hydroxy-N-(5-isopropyl-2-methyl-4-phenoxyphenyl)pyrazolo[1,5-a]pyridine-3-carboxamide]

Compound: O=C(Nc1ccc(Oc2ccccc2)cn1)c1c(O)nn2ccccc12 [Compound 23, 2-Hydroxy-N-(5-phenoxypiridin-2-yl)pyrazolo[1,5-a]pyridine-3-carboxamide]
IC50 [1, 6]: 12000 ± 1000 nM

Compound: COc1cccc(-c2c(F)c(F)c(NC(=O)c3c(O)nn4ccccc34)c(F)c2F)c1 [Compound 16, 2-Hydroxy-N-(2,3,5,6-tetrafluoro-3′-methoxy-[1,1′-biphenyl]-4-yl)pyrazolo[1,5-a]pyridine-3-carboxamide]
IC50 [1, 6]: 2.75 ± 0.31 nM

IC50 [1, 6]: 1.35 ± 0.45 nM
Compound: O=C(Nc1c(F)c(F)c(-c2cccs2)c(F)c1F)c1c(O)nn2ccccc12 [Compound 7, 2-Hydroxy-N-(2,3,5,6-tetrafluoro-4-(thiophen-2-yl)phenyl)pyrazolo[1,5-a]pyridine-3-carboxamide]

hDHODH IC50 ± SE [1, 7]: Inactive at 1 microM
Compound: Oc1nn2ccccc2c1/N=N/c1ccc(Oc2ccccc2)cc1 [Compound 38, (E)-3-((4-phenoxyphenyl)diazinyl)pyrazolo[1,5-a]pyridin-2-ol]

Compound: O=C(Nc1c(F)c(F)c(-c2cccc(C(F)(F)F)c2)c(F)c1F)c1c(O)nn2ccccc12 [Compound 13, 2-Hydroxy-N-(2,3,5,6-tetrafluoro-3′-(trifluoromethyl)-[1,1′-biphenyl]-4-yl)pyrazolo[1,5-a]pyridine-3-carboxamide]
Log D7.4 ± SD [4]: 2.69 ± 0.03
IC50 [1, 6]: 6.34 ± 0.63 nM
Solubility in PBS [2]: <LOD

Compound: CC(=O)COc1cccc(-c2c(F)c(F)c(NC(=O)c3c(O)nn4ccccc34)c(F)c2F)c1 [Compound 41, 2-Hydroxy-N-(2,3,5,6-tetrafluoro-3′-(2-oxopropoxy)-[1,1′-biphenyl]-4-yl) pyrazolo [1,5-a]pyridine-3-carboxamide]
IC50 [1, 6]: 0.82 ± 0.1 nM

Compound: O=C(Nc1c(F)c(F)c(-c2ccc(C(F)(F)F)cc2)c(F)c1F)c1c(O)nn2ccccc12 [Compound 12, 2-Hydroxy-N-(2,3,5,6-tetrafluoro-4′-(trifluoromethyl)-[1,1′-biphenyl]-4-yl)pyrazolo[1,5-a]pyridine-3-carboxamide]
Log D7.4 ± SD [4]: Insoluble
IC50 [1, 6]: 71.8 nM
Solubility in PBS [2]: <LOD

Compound: Cc1cccc2c(C(=O)Nc3c(F)c(F)c(-c4ccccc4)c(F)c3F)c(O)nn12 [Compound 2]
IC50 [1, 6]: 4.3 nM

Compound: O=C(Nc1c(F)c(F)c(-c2cccc(O)c2)c(F)c1F)c1c(O)nn2ccccc12 [Compound 14, 2-Hydroxy-N-(2,3,5,6-tetrafluoro-3′-hydroxy-[1,1′-biphenyl]-4-yl)pyrazolo[1,5-a]pyridine-3-carboxamide]
Log D7.4 ± SD [4]: 1.82 ± 0.09
IC50 [1, 6]: 2.78 ± 0.32 nM
solubility at 24 h [2]: 55 µM (≈ 23 µg/mL)

Compound: O=C(Nc1c(F)c(F)c(N2CCOCC2)c(F)c1F)c1c(O)nn2ccccc12 [Compound 6, 2-Hydroxy-N-(2,3,5,6-tetrafluoro-4-morpholinophenyl)pyrazolo[1,5-a]pyridine-3-carboxamide]
Log D7.4 ± SD [4]: 0.66 ± 0.08
IC50 [1, 6]: 90.9 nM
solubility at 24 h [2]: 438 µM (≈ 180 µg/mL)

Compound: O=C(Nc1ccc(Oc2cccc(C(F)(F)F)c2)cn1)c1c(O)nn2ccccc12 [Compound 24, 2-Hydroxy-N-5-[3-(trifluoromethyl)phenoxy]piridin-2-ylpyrazolo[1,5-a]pyridine-3-carboxamide]
IC50 [1, 6]: > 10000 nM

Compound: O=C(Nc1c(F)c(F)c(-c2cccc(OC(F)(F)F)c2)c(F)c1F)c1c(O)nn2ccccc12 [Compound 15, 2-Hydroxy-N-(2,3,5,6-tetrafluoro-3′-(trifluoromethoxy)-[1,1′-biphenyl]-4-yl)pyrazolo[1,5-a]pyridine-3-carboxamide]
inhibition at 0.1 µM [5]: 93.6%
Log D7.4 ± SD [4]: 3.27 ± 0.19
IC50 [1, 6]: 2.3 ± 0.33 nM

IC50 [1, 6]: 43 ± 5 nM
Compound: Cc1cc(Oc2ccccc2)c(C)cc1NC(=O)c1c(O)nn2ccccc12 [Compound 18]

Compound: CC(O)COc1cccc(-c2c(F)c(F)c(NC(=O)c3c(O)nn4ccccc34)c(F)c2F)c1 (stereo not drawn) [Compound 43, 2-Hydroxy-N-(2,3,5,6-tetrafluoro-3′-(2-hydroxypropoxy)-[1,1′-biphenyl]-4-yl) pyrazolo[1,5-a]pyridine-3-carboxamide]
IC50 [1, 6]: 2.5 ± 0.2 nM

Compound: O=C(Nc1c(F)c(F)c(-c2cccc(OCCCO)c2)c(F)c1F)c1c(O)nn2ccccc12 [Compound 42, 2-Hydroxy-N-(2,3,5,6-tetrafluoro-3′-(3-hydroxypropoxy)-[1,1′-biphenyl]-4-yl) pyrazolo[1,5-a]pyridine-3-carboxamide]
IC50 [1, 6]: 3.29 ± 0.33 nM
